Reference: patent US8846737B2, “Compound” (Sterix Limited, priority 2009, dated 2014)

Tests used:
Aromatase = molecular target: T1, Aromatase (Homo sapiens, UniProt P11511); experiment: Aromatase activity in JEG3 cells (Protocol 6); format: cell-based; settings: intact JEG3 cells, [1β-3H]androstenedione, 30 min
T1 construct: host or cells: JEG3 choriocarcinoma cells, intact monolayers
T1 sequence (P11511 1-503): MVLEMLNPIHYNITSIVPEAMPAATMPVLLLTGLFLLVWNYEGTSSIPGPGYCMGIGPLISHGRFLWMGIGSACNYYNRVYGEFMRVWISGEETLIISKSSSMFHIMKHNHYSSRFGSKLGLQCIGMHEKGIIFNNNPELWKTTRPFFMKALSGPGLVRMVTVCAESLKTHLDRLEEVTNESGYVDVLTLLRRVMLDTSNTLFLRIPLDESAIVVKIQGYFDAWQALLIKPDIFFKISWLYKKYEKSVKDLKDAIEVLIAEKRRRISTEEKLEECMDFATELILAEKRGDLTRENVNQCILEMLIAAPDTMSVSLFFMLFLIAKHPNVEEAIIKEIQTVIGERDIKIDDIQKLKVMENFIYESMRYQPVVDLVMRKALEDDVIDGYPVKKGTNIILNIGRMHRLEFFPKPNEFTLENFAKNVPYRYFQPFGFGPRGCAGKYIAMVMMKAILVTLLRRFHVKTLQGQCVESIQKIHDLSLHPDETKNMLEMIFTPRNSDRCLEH
Protocol: Assay for Determining Aromatase Activity Using JEG3 Cells
Aromatase activity is measured in JEG3 choriocarcinoma cells, obtained from the ATCC. […] During the aromatase reaction, ^3H2O is liberated which can be quantified using a liquid scintillation spectrometer. […] The number of cell nuclei per flask is determined using a Coulter Counter after treating the cell monolayers with Zaponin.
Aromatase inhibition was measured in accordance with Protocol 6.

Steroid sulphatase (STS) = molecular target: T2, Steroid sulphatase (STS) (Homo sapiens, UniProt P08842); experiment: Inhibition of steroid sulphatase activity in JEG3 cells (Protocol 1); format: cell-based; settings: intact JEG3 cells, [6,7-3H]oestrone-3-sulphate, 3-4 hours
T2 construct: host or cells: JEG3 choriocarcinoma cells, intact monolayers
T2 sequence (P08842 22-583): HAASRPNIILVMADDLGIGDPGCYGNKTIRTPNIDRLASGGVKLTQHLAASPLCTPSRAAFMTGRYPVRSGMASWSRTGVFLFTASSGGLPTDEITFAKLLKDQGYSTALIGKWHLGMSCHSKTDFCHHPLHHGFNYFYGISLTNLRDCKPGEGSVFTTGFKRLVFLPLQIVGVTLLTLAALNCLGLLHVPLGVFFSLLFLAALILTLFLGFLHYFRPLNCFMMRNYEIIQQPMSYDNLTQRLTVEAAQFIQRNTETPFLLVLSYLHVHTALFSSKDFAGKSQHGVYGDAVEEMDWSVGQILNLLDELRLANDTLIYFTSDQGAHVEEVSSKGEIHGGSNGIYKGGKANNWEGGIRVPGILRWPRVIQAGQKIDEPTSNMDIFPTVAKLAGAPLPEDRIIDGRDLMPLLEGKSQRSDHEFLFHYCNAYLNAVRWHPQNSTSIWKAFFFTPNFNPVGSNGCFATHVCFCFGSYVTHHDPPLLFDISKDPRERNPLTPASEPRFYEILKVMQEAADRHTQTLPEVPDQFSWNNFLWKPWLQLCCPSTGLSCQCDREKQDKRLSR
Protocol: Assay for Determining STS Activity Using Cancer Cells
Inhibition of Steroid Sulphatase Activity in JEG3 Cells
Steroid sulphatase activity is measured in vitro using intact JEG3 choriocarcinoma cells.
Cells are maintained in Minimal Essential Medium (MEM) containing 20 mM HEPES, 5% foetal bovine serum, 2 mM glutamine, non-essential amino acids and 0.075% sodium bicarbonate. Up to 30 replicate 25 cm^2 tissue culture flasks are seeded with approximately 1×10^5 cells/flask using the above medium Cells are grown to 80% confluency and the medium is changed every third day.
Intact monolayers of JEG3 cells in triplicate 25 cm^2 tissue culture flasks are washed with Earle's Balanced Salt Solution (EBSS) and incubated for 3-4 hours at 37° C. with 5 pmol (7×10^5 dpm) [6, 7-3H]oestrone-3-sulphate (specific activity 60 Ci/mmol) in serum-free MEM (2.5 ml) together with oestrone-3-sulphamate (11 concentrations: 0; 1fM; 0.01 pM; 0.1 pM, 1 pM; 0.01 nM; 0.1 nM; 0.01 mM; 0.1 mM; 1 mM). After incubation each flask is cooled and the medium (1 ml) is pipetted into separate tubes containing [14C]oestrone (7×10^3 dpm) (specific activity 97 Ci/mmol). The mixture is shaken thoroughly for 30 seconds with toluene (5 ml) Experiments have shown that >90% [14C]oestrone and <0 1% [3H]oestrone-3-sulphate is removed from the aqueous phase by this treatment A portion (2 ml) of the organic phase is removed, evaporated and the 3H and 14C content of the residue determined by scintillation spectrometry The mass of oestrone-3-sulphate hydrolysed was calculated from the 3H counts obtained (corrected for the volumes of the medium and organic phase used, and for recovery of [14C] oestrone added) and the specific activity of the substrate Each batch of experiments includes incubations of microsomes prepared from a sulphatase-positive human placenta (positive control) and flasks without cells (to assess apparent non-enzymatic hydrolysis of the substrate). The number of cell nuclei per flask is determined using a Coulter Counter after treating the cell monolayers with Zaponin One flask in each batch is used to assess cell membrane status and viability using the Trypan Blue exclusion method (Phillips, H J. (1973) In: Tissue culture and applications, [eds: Kruse, D. F. & Patterson, M. K]; pp 406-408; Academic Press, New York)
Results for steroid sulphatase activity are expressed as the mean±1S.D. of the total product (oestrone+oestradiol) formed during the incubation period (3-4 hours) calculated for […] and, for values showing statistical significance, as a percentage reduction (inhibition) over incubations containing no oestrone-3-sulphamate. Unpaired Student's t-test was used to test the statistical significance of results
Sterioid sulphatase inhibition was measured in accordance with Protocol 1

| SMILES | IC50 (Aromatase) | IC50 (Steroid sulphatase (STS)) |
| --- | --- | --- |
| N#Cc1ccc(N(Cc2ccc(OS(N)(=O)=O)c(Br)c2)n2cnnc2)cc1-c1ccsc1 [Compound 9] | 2.6 ± 0.2 nM | 3.9 ± 0.8 nM |
| N#Cc1ccc(-c2cc(N(Cc3ccc(OS(N)(=O)=O)cc3)n3cnnc3)ccc2C#N)cc1 [CAB06088, 4-(((4′,6-Dicyanobiphenyl-3-yl)(4H-1,2,4-triazol-4-yl)amino)methyl)phenyl sulfamate] | 0.75 ± 0.18 nM | 240 ± 60 nM |
| N#Cc1ccc(N(Cc2ccc(O)cc2)n2cnnc2)cc1Oc1ccccc1 [Compound 56] | 1.82 ± 0.03 nM | – |
| N#Cc1ccc(N(Cc2ccc(O)cc2)n2cnnc2)cc1-c1ccncc1 [Compound 50] | 4.03 ± 0.29 nM | – |
| N#Cc1ccc(N(Cc2ccc(Br)cc2)n2cnnc2)c(-c2ccccc2)c1 [Compound 2] | 960 ± 53 nM | – |
| N#Cc1ccc(N(Cc2ccc(O)c(F)c2F)n2cnnc2)cc1-c1ccccc1 [Compound 33] | 1 ± 0.3 nM | – |
| N#Cc1ccc(N(Cc2ccc(OS(N)(=O)=O)cc2)n2cnnc2)cc1Cc1ccccc1 [Compound 13] | < 0.1 nM | 41 ± 3 nM |
| N#Cc1ccc(N(Cc2ccccc2)n2cnnc2)cc1-c1ccc(OS(N)(=O)=O)cc1 [CAB06054, 5′-(Benzyl(4H-1,2,4-triazol-4-yl)amino)-2′-cyanobiphenyl-4-yl sulfamate] | 0.1 ± 0.02 nM | 2900 ± 180 nM |
| N#Cc1ccc(C(c2ccc(O)cc2)n2cncn2)cc1-c1ccccc1 (centres unmarked) [Compound 37] | 0.23 ± 0.04 nM | – |
| N#Cc1ccc(Nn2cnnc2)cc1-c1ccccc1 [CAB06022, 5-(4H-1,2,4-Triazol-4-ylamino)biphenyl-2-carbonitrile] | 0.39 ± 0.09 nM | – |
| N#Cc1ccc(N(Cc2ccc(OS(N)(=O)=O)cc2)n2cnnc2)c2ccccc12 [Compound 27] | 200 ± 5 nM | – |
| N#Cc1ccc(N(Cc2ccc(OS(N)(=O)=O)cc2)n2cnnc2)cc1-c1ccc(F)cc1 [CAB06078, 4-(((6-Cyano-4′-fluorobiphenyl-3-yl)(4H-1,2,4-triazol-4-yl)amino)methyl)phenyl sulfamate] | 0.47 ± 0.18 nM | 55 ± 6 nM |
| N#Cc1ccc(N(Cc2ccc(O)cc2F)n2cnnc2)cc1-c1ccccc1 [Compound 30] | 0.35 ± 0.06 nM | – |
| N#Cc1ccc(N(Cc2ccc(OS(N)(=O)=O)cc2)n2cnnc2)cc1N1CCCCCC1 [Compound 19] | 3.2 ± 0.1 nM | 181 ± 8 nM |
| N#Cc1ccc(N(CCc2c(F)cc(O)cc2F)n2cnnc2)cc1 [Compound 24] | 0.14 ± 0.03 nM | – |
| N#Cc1ccc(N(Cc2ccc(OS(N)(=O)=O)cc2F)n2cnnc2)cc1-c1ccccc1 [Compound 31] | 1.43 ± 0.55 nM | 0.15 ± 0.03 nM |
| N#Cc1ccc(N(Cc2c(F)cc(OS(N)(=O)=O)cc2F)n2cnnc2)cc1-c1ccc(F)cc1 [Compound 47] | 5.6 ± 0.1 nM | 14 ± 0.87 nM |
| N#Cc1ccc(N(Cc2ccc(OS(N)(=O)=O)c(Br)c2)n2cnnc2)cc1-c1ccccc1 [CAB06045, 2-Bromo-4-(((6-cyanobiphenyl-3-yl)(4H-1,2,4-triazol-4-yl)amino)methyl)phenyl sulfamate] | 0.018 ± 0.01 nM | 0.13 ± 0.01 nM |
| COc1ccc(Cc2cc(N(Cc3ccc(O)cc3)n3cnnc3)ccc2C#N)cc1 [Compound 44] | 3.1 ± 0.4 nM | – |

| SMILES | IC50 (Aromatase) | IC50 (Steroid sulphatase (STS)) |
| --- | --- | --- |
| N#Cc1ccc(N(Cc2ccccc2)n2cnnc2)cc1-c1ccc(O)cc1 [CAB06052, 5-(Benzyl-[1,2,4]triazol-4-yl-amino)-4′-hydroxy-biphenyl-2-carbonitrile] | 0.33 ± 0.01 nM | – |
| COc1ccc(-c2cc(N(Cc3ccc(OS(N)(=O)=O)cc3)n3cnnc3)ccc2C#N)cc1 [CAB06077] | 0.015 ± 0.001 nM | 22 ± 6 nM |
| N#Cc1ccc(N(Cc2ccc(O)cc2)n2cnnc2)cc1Cc1ccccc1 [Compound 12] | < 0.1 nM | – |
| N#Cc1ccc(N(Cc2ccc(OS(N)(=O)=O)c(F)c2)n2cnnc2)cc1-c1ccccc1 [CAB06044, 4-(((6-Cyanobiphenyl-3-yl)(4H-1,2,4-triazol-4-yl)amino)methyl)-2-fluorophenyl sulfamate] | 0.15 ± 0.03 nM | 2.3 ± 0.9 nM |
| N#Cc1ccc(N(Cc2ccc(O)cc2)n2cnnc2)cc1-c1ccccc1 [CAB06021, 5-((4-Hydroxybenzyl)(4H-1,2,4-triazol-4-yl)amino)biphenyl-2-carbonitrile] | < 0.1 nM | – |
| N#Cc1ccc(N(Cc2ccc(OS(N)(=O)=O)c(Cl)c2)n2cnnc2)cc1-c1ccccc1 [CAB06049, 2-Chloro-4-(((6-cyanobiphenyl-3-yl)(4H-1,2,4-triazol-4-yl)amino)methyl)phenyl sulfamate] | 0.015 ± 0.005 nM | 0.83 ± 0.15 nM |
| COc1ccc(-c2cc(N(Cc3c(F)cc(O)cc3F)n3cnnc3)ccc2C#N)cc1 [Compound 35] | < 0.1 nM | – |
| N#Cc1ccc(N(Cc2ccc(OS(N)(=O)=O)cc2)n2cnnc2)cc1-c1ccccc1 [CAB06025, 4-(((6-Cyanobiphenyl-3-yl)(4H-1,2,4-triazol-4-yl)amino)methyl)phenyl sulfamate] | 0.14 ± 0.01 nM | 17 ± 2 nM |
| COc1ccc(-c2cc(N(Cc3c(F)cc(OS(N)(=O)=O)cc3F)n3cnnc3)ccc2C#N)cc1 [Compound 36] | < 0.1 nM | 0.1 nM |
| CN1CCN(c2cc(N(Cc3ccc(O)cc3)n3cnnc3)ccc2C#N)CC1 [Compound 22] | 13.8 ± 4.51 nM | – |
| N#Cc1ccc(N(CCC(=O)c2ccc(OS(N)(=O)=O)cc2)n2cnnc2)cc1-c1ccccc1 [Compound 29] | < 0.1 nM | 1150 ± 50 nM |
| N#Cc1ccc(N(Cc2ccc(O)c(Br)c2)n2cnnc2)cc1-c1ccccc1 [CAB06026, 5-((3-Bromo-4-hydroxybenzyl)(4H-1,2,4-triazol-4-yl)amino)biphenyl-2-carbonitrile] | 3.6 ± 0.4 nM | – |
| COc1ccc(-c2cc(Nn3cnnc3)ccc2C#N)cc1 [CAB06046, 5-(4H-1,2,4-Triazol-4-ylamino)-4′-methoxybiphenyl-2-carbonitrile] | 0.26 ± 0.12 nM | – |
| N#Cc1ccc(N(Cc2ccc(Br)cc2)n2cnnc2)cc1-c1ccccc1 [Compound 1] | < 0.1 nM | – |
| N#Cc1ccc(N(Cc2ccc(O)cc2)n2cnnc2)cc1CN1CCCC1 [Compound 40] | 8 nM | – |
| N#Cc1ccc(N(Cc2ccc(O)c(F)c2)n2cnnc2)cc1-c1ccccc1 [CAB06043, 5-((3-Fluoro-4-hydroxybenzyl)(4H-1,2,4-triazol-4-yl)amino)biphenyl-2-carbonitrile] | 1.6 ± 0.6 nM | – |
| N#Cc1ccc(N(CCc2c(F)cc(OS(N)(=O)=O)cc2F)n2cnnc2)cc1 [Compound 25] | – | 485 ± 50.7 nM |
| N#Cc1ccc(N(Cc2c(F)cc(O)cc2F)n2cnnc2)cc1-c1ccc(F)cc1 [Compound 46] | 4.1 ± 0.2 nM | – |
| N#Cc1ccc(N(Cc2ccc(OS(N)(=O)=O)cc2)n2cnnc2)cc1N1CCOCC1 [Compound 21] | 44 ± 5 nM | – |
